Consider 19 molecules from US20240228489A1, “POSITIVE ALLOSTERIC MODULATORS OF THE MUSCARINIC ACETYLCHOLINE RECEPTOR M1” (Vanderbilt University, priority 2021, published 2024).

One may read the EC50 as the concentration at which the effect is half-maximal. By Emax is commonly meant the size of the effect at its maximum, as opposed to the concentration needed.

Experiment [1] concerns the target T1, human mAChR M1 (Homo sapiens, UniProt P11229).
T1 sequence (P11229 1-460): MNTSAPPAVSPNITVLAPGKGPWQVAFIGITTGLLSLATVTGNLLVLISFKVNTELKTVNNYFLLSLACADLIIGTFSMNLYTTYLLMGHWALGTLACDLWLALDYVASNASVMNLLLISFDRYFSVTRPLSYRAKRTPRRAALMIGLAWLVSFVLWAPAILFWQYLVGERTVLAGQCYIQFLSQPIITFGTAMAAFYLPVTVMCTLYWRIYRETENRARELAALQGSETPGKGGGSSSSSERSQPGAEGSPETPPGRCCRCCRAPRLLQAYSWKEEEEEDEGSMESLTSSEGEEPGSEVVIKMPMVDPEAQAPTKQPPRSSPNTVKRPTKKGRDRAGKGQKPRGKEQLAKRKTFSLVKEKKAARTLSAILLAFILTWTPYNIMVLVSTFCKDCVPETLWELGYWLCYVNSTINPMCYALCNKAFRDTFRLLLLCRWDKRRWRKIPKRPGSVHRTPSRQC
Kind of experiment: mAChR M1 cell-based functional assay (calcium mobilization), PAM mode: increase in the EC20 acetylcholine response. The gist of the method:
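CHO-K1 cells stably expressing hM1, Fluo-4 loaded, read by FDSS calcium flux at 1 Hz. Compound (11-point 1:3 CRC) added at 4 s, EC20 acetylcholine at 144 s, EC80 at 230 s. PAM activity taken as concentration-dependent increase in EC20 ACh response, fitted by four-parameter logistic for EC50/Emax.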
In general terms: Calcium assays in cells follow changes in intracellular calcium, usually with a dye or a luminescent sensor.

Experiment [2] deals with T1, human mAChR M1. Kind of experiment: mAChR M1 cell-based functional assay (calcium mobilization), agonist mode: compound alone, Emax relative to acetylcholine maximum. As to conditions: for EC50 / Agonist Activity Human M1 EC50: human mAChR M1; for Emax: relative to the maximum for acetylcholine; call rule not given here. The gist of the method: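 CHO-K1 cells stably expressing hM1 were loaded with Fluo-4 AM, and calcium flux was read as fluorescence ratio. Compound was added alone from an 11-point 1:3 curve, and the agonist response was fitted with a four-parameter logistic. Emax is expressed relative to the acetylcholine maximum.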

In the case of `[2H]C1([2H])c2ncccc2C(=O)N1Cc1c(F)cc(-c2ccc(OCC3(C#N)CC3)c3nn(C)cc23)cc1F` [Compound 174, 1-(((4-(3,5-difluoro-4-((5-oxo-5,7-dihydro-6H-pyrrolo[3,4-b]pyridin-6-yl-7,7-d2)methyl)phenyl)-2-methyl-2H-indazol-7-yl)oxy)methyl)cyclopropane-1-carbonitrile], at human mAChR M1 [1], the EC50 was found to be 193 nM and the Emax was 86%. Also, at human mAChR M1 [2], the EC50 stood at 8.12 µM and the Emax worked out at 26%.
The like results for `[2H]C1([2H])c2ncccc2C(=O)N1Cc1c(F)cc(-c2cccc3nn(C)cc23)cc1C1CC1` [Compound 192, 6-(2-cyclopropyl-6-fluoro-4-(2-methyl-2H-indazol-4-yl)benzyl)-6,7-dihydro-5H-pyrrolo[3,4-b]pyridin-5-one-7,7-d2] were, in that order, 137 nM, 84%, 5.96 µM and 44%.
Consider `[2H]C1([2H])c2ncccc2C(=O)N1Cc1c(F)cc(-c2cnc3nn(C)cc3c2)cc1Cl` [Compound 168, 6-(2-chloro-6-fluoro-4-(2-methyl-2H-pyrazolo[3,4-b]pyridin-5-yl)benzyl)-6,7-dihydro-5H-pyrrolo[3,4-b]pyridin-5-one-7,7-d2], for which, on human mAChR M1 [1], the EC50 turned out to be 1480 nM and the Emax worked out at 86%. In addition, on human mAChR M1 [2], the “Agonist Activity Human M1 EC50” value is on record as “Inactive” and the Emax is 6%.
With `[2H]C1([2H])c2ncccc2C(=O)N1Cc1c(F)cc(-c2ccc3nn(C)cc3c2)cc1C1CC1` [Compound 193, 6-(2-cyclopropyl-6-fluoro-4-(2-methyl-2H-indazol-5-yl)benzyl)-6,7-dihydro-5H-pyrrolo[3,4-b]pyridin-5-one-7,7-d2], the EC50 came to 266 nM on human mAChR M1 [1] and 9.83 µM at human mAChR M1 [2]. Also, the Emax came to 88% at human mAChR M1 [1] and 11% on human mAChR M1 [2].
Regarding `[2H]C1([2H])c2ncccc2C(=O)N1Cc1ccc(-c2cc(C)c3nn(C)cc3c2)cc1F` [Compound 25, 6-(4-(2,7-dimethyl-2H-indazol-5-yl)-2-fluorobenzyl)-6,7-dihydro-5H-pyrrolo[3,4-b]pyridin-5-one-7,7-d2], on human mAChR M1 [1], the EC50 was 1070 nM and the Emax is 76%. Also, at human mAChR M1 [2], the “Agonist Activity Human M1 EC50” value is “Inactive” and the Emax is 4%.
In the same order, the values of `[2H]C1([2H])c2ncccc2C(=O)N1Cc1c(F)cc(-c2cccc3nn(C)cc23)cc1OC` [Compound 231, 6-(2-fluoro-6-methoxy-4-(2-methyl-2H-indazol-4-yl)benzyl)-6,7-dihydro-5H-pyrrolo[3,4-b]pyridin-5-one-7,7-d2] are 806 nM, 73%, “Inactive” and 7%.
The like results for `[2H]C1([2H])c2ncccc2C(=O)N1Cc1ccc(-c2cnc3nn(C)cc3c2)cc1F` [Compound 21, 6-(2-fluoro-4-(2-methyl-2H-pyrazolo[3,4-b]pyridin-5-yl)benzyl)-6,7-dihydro-5H-pyrrolo[3,4-b]pyridin-5-one-7,7-d2] were, in that order, 2420 nM, 76%, “Inactive” and 6%.
On to `[2H]C1([2H])c2ncccc2C(=O)N1Cc1ccc(-c2ccc(C)c3nn(C)cc23)cc1F` [Compound 28, 6-(4-(2,7-dimethyl-2H-indazol-4-yl)-2-fluorobenzyl)-6,7-dihydro-5H-pyrrolo[3,4-b]pyridin-5-one-7,7-d2], for which the EC50 at human mAChR M1 [1] stood at 535 nM; on human mAChR M1 [2], 6.24 µM. Besides, the values for the Emax on human mAChR M1 [1] and at human mAChR M1 [2] were 80% and 28%, respectively.
In the same order, the values of `[2H]C1([2H])c2ncccc2C(=O)N1Cc1c(F)cc(-c2ccc(C(F)F)c3nn(C)cc23)cc1F` [Compound 123, 6-(4-(7-(difluoromethyl)-2-methyl-2H-indazol-4-yl)-2,6-difluorobenzyl)-6,7-dihydro-5H-pyrrolo[3,4-b]pyridin-5-one-7,7-d2] are 490 nM, 7.93 µM, 80% and 11%.
Regarding `[2H]C1([2H])c2ncccc2C(=O)N1Cc1c(F)cc(-c2cccn3nc(C)cc23)cc1F` [Compound 235, 6-(2,6-Difluoro-4-(2-methylpyrazolo[1,5-a]pyridin-4-yl)benzyl)-6,7-dihydro-5H-pyrrolo[3,4-b]pyridin-5-one-7,7-d2], at human mAChR M1 [1], the EC50 worked out at 744 nM and the Emax came out at 73%. Further, at human mAChR M1 [2], the EC50 was greater than 10 µM and the Emax came to 23%.
With `[2H]C1([2H])c2ncccc2C(=O)N1Cc1c(F)cc(-c2cccc3nn(C)cc23)cc1N1CCC1` [Compound 221, 6-(2-(azetidin-1-yl)-6-fluoro-4-(2-methyl-2H-indazol-4-yl)benzyl)-6,7-dihydro-5H-pyrrolo[3,4-b]pyridin-5-one-7,7-d2], at human mAChR M1 [1], the EC50 was 2690 nM and the Emax was 82%. Further, on human mAChR M1 [2], the “Agonist Activity Human M1 EC50” value is given as “Inactive” and the Emax was determined as 2%.
For the molecule `[2H]C1([2H])c2ncccc2C(=O)N1Cc1c(F)cc(-c2ccc(OCC3CCO3)c3nn(C)cc23)cc1F` (stereo not shown) [Compound 135, 6-(2,6-difluoro-4-(2-methyl-7-(oxetan-2-ylmethoxy)-2H-indazol-4-yl)benzyl)-6,7-dihydro-5H-pyrrolo[3,4-b]pyridin-5-one-7,7-d2], at human mAChR M1 [1], the half-maximal effective concentration (EC50) is 405 nM and the Emax worked out at 78%. For the same molecule, at human mAChR M1 [2], the EC50 is 7.52 µM and the Emax turned out to be 26%.
Regarding `[2H]C1([2H])c2ncccc2C(=O)N1Cc1c(C)cc(-c2ccc(OCCOC)c3nn(C)cc23)cc1F` [Compound 177, 6-(2-fluoro-4-(7-(2-methoxyethoxy)-2-methyl-2H-indazol-4-yl)-6-methylbenzyl)-6,7-dihydro-5H-pyrrolo[3,4-b]pyridin-5-one-7,7-d2], on human mAChR M1 [1], the EC50 is 201 nM and the Emax was 82%. For the same molecule, on human mAChR M1 [2], the EC50 was found to be 6.12 µM and the Emax stood at 27%.
For `[2H]C1([2H])c2ncccc2C(=O)N1Cc1c(F)cc(-c2cccc3nn(C([2H])([2H])[2H])cc23)cc1F` [Compound 31, 6-(2,6-Difluoro-4-(2-(methyl-d3)-2H-indazol-4-yl)benzyl)-6,7-dihydro-5H-pyrrolo[3,4-b]pyridin-5-one-7,7-d2], on human mAChR M1 [1], the EC50 was found to be 263 nM and the Emax is 84%. Further, at human mAChR M1 [2], the EC50 worked out at 8.6 µM and the Emax is 28%.
In the same order, the values of `[2H]C1([2H])c2ncc(O)cc2C(=O)N1Cc1c(F)cc(-c2cccc3nn(C)cc23)cc1F` [Compound 62, 6-(2,6-Difluoro-4-(2-methyl-2H-indazol-4-yl)benzyl)-3-hydroxy-6,7-dihydro-5H-pyrrolo[3,4-b]pyridin-5-one-7,7-d2] are 108 nM, 67%, 4.34 µM and 57%.
On to `[2H]C1([2H])c2ncccc2C(=O)N1Cc1c(C)cc(-c2ccc(Cl)c3nn(C)cc23)cc1F` [Compound 199, 6-(4-(7-chloro-2-methyl-2H-indazol-4-yl)-2-fluoro-6-methylbenzyl)-6,7-dihydro-5H-pyrrolo[3,4-b]pyridin-5-one-7,7-d2], for which, on human mAChR M1 [1], the EC50 came to 475 nM and the Emax amounted to 81%. Besides, on human mAChR M1 [2], the “Agonist Activity Human M1 EC50” value is listed as “Inactive” and the Emax amounted to 4%.
For `[2H]C1([2H])c2ncccc2C(=O)N1Cc1ccc(-c2cccc3nn(C([2H])([2H])[2H])cc23)cc1F` [Compound 53, 6-(2-fluoro-4-(2-(methyl-d3)-2H-indazol-4-yl)benzyl)-6,7-dihydro-5H-pyrrolo[3,4-b]pyridin-5-one-7,7-d2], the EC50 was 325 nM at human mAChR M1 [1] and greater than 10 µM at human mAChR M1 [2]. The results for the Emax on human mAChR M1 [1] and on human mAChR M1 [2] were 84% and 9%, respectively.
As for `[2H]C([2H])([2H])Oc1cc(-c2cc(F)c(CN3C(=O)c4cccnc4C3([2H])[2H])c(F)c2)c2cn(C([2H])([2H])[2H])nc2c1` [Compound 87, 6-(2,6-difluoro-4-(6-(methoxy-d3)-2-(methyl-d3)-2H-indazol-4-yl)benzyl)-6,7-dihydro-5H-pyrrolo[3,4-b]pyridin-5-one-7,7-d2], at human mAChR M1 [1], the EC50 came out at 819 nM and the Emax is 69%. For the same molecule, at human mAChR M1 [2], the “Agonist Activity Human M1 EC50” value was “Inactive” and the Emax came out at 11%.
The like results for `[2H]C1([2H])c2ncccc2C(=O)N1Cc1c(F)cc(-c2cccc3nn(C)cc23)cc1Cl` [Compound 166, 6-(2-chloro-6-fluoro-4-(2-methyl-2H-indazol-4-yl)benzyl)-6,7-dihydro-5H-pyrrolo[3,4-b]pyridin-5-one-7,7-d2] were, in that order, 318 nM, 82%, “Inactive” and 5%.
